Several values for one entry are separate records, joined by “and”; a condition that tells them apart may be missing. Equal entries are not always repeated.
What was measured:
GFP^hi DN3a thymocytes = assay: Cell cycle-restricted GFP^hi DN3a thymocytes in treated H2B-GFP;Lmo2^Tg mice; type: in vivo, mouse
hematopoietic stem cells = assay: Competitive transplant with bone marrow cells from treated WT mice (HSC activity); type: in vivo
Protocol: induction-like therapy (VXL) or combination therapy was administered. Mean ± SEM, 2-way ANOVA […]
murine B (CD19+ B220+), T (CD3+) and Myeloid (Gr-1 + CD11b+ granulocytes and monocytes) cells (c ), as well as Lineage-negative Kit-positive (Lin -Kit+, LK) progenitors, different populations of multipotent progenitors (MPP) and hematopoietic stem cells (HSC; d) from the bone marrow of WT […]
administered. Vehicle was used as control. e, Experimental schematic of competitive transplant […]
harvested from isogenic Cd45.1+ mice. These cells were injected into lethally -irradiated recipients, and lineage reconstitution was monitored every 4 weeks, until 20 weeks post-transplantation when BM was harvested for analysis. f, Percent of donor -derived (Cd45.2 +) cells among all peripheral blood cells at 4, 8, 12, 16 and 20 weeks post- transplant. g-h , Absolute numbers of donor-derived (Cd45.2+) lineage-committed (B, and Myeloid) cells ( g), as well as LK, MPP populations and HSCs (h ) harvested from the BM of recipients at 20 weeks post- transplant. Mean ± SEM, 2-way ANOV A with Tukey’s correction test; *P<0.05, *** P<0.001 compared to vehicle; #P<0.05, ##P<0.01, ###P<0.001 compared to VXL. ns = not statistically significant.

Structure (SMILES): CCCCCCCCNC(=O)C(C#N)=Cc1cn(CCCN(C)C)c2ccccc12 [Dynole 34-2, 2-Cyano-N-octyl-3-(1-(3-dimethylaminopropyl)-1H-indol-3-yl)-acrylamide]
- proportion of GFP^hi cells in DN3a thymocytes (GFP^hi DN3a thymocytes; H2B-GFP;Lmo2^Tg mice, result in words): did not affect
- % GFPhi cells in DN3a population (GFP^hi DN3a thymocytes; mouse, in vivo): 1.5% and 3.3% and 0.2% and 1.3%
- repopulation activity and leukemogenicity of GFP^hi DN3a thymocytes (GFP^hi DN3a thymocytes; result in words): significantly impaired
- Absolute numbers of Cd45.2+ cells in the bone marrow: B cells (hematopoietic stem cells; Supplementary Figure 5g-h): 3150000 and 4270000 and 3310000 and 4360000
- Absolute numbers of Cd45.2+ cells in the bone marrow: LK (hematopoietic stem cells; Supplementary Figure 5g-h): 231000 and 185000 and 205000 and 163000 and 160000
- Absolute numbers of Cd45.2+ cells in the bone marrow: Myeloid cells (hematopoietic stem cells; Supplementary Figure 5g-h): 955000 and 1600000 and 1200000 and 1410000 and 1720000
- Absolute numbers of Cd45.2+ cells in the bone marrow: T cells (hematopoietic stem cells; Supplementary Figure 5g-h): 471000 and 332000 and 364000 and 374000 and 460000
- effect on HSC fitness and differentiation potential (hematopoietic stem cells; competitive transplant of bone marrow from treated mice, result in words): no detrimental effect on HSC fitness and differentiation potential
- Proportion of CD45.2+ (%) in peripheral blood (hematopoietic stem cells; week 4): 40.53% and 37.56% and 37.9% and 34.3% and 35.3%
- Proportion of CD45.2+ (%) in peripheral blood (hematopoietic stem cells; week 8): 36.97% and 46.65% and 45.78% and 44.9% and 43.63%
- Proportion of CD45.2+ (%) in peripheral blood (hematopoietic stem cells; week 12): 46.54% and 48.81% and 42.82% and 42.23% and 46.32%
- Proportion of CD45.2+ (%) in peripheral blood (hematopoietic stem cells; week 16): 42.09% and 57% and 54.04% and 43.93% and 53.26%
- Proportion of CD45.2+ (%) in peripheral blood (hematopoietic stem cells; week 20): 50.7% and 47.2% and 59.8% and 59.3% and 53.24%
